Measurements as given in patent US20240174624A1, “CHIRAL N-(1,3,4-OXADIAZOLE-2-YL)PHENYL CARBOXYLIC ACID AMIDES AND THEIR USE AS HERBICIDES” (Bayer Aktiengesellschaft, priority 2021, published 2024).

Legend:
[1] = tested on: ECHCG; assay: Post-emergence herbicidal action; assay type: in vivo, Echinochloa crus-galli; conditions: for Herbicidal action against ECHCG: 20 g a.i./ha, comparative experiment
Experimental: (§1) Seeds of monocotyledonous and dicotyledonous weed and crop plants are laid out in sandy loam soil in wood-fibre pots, covered with soil and cultivated in a greenhouse under good growth conditions. 2 to 3 weeks after sowing, the test plants are treated at the one-leaf stage. The compounds of the invention, formulated in the form of wettable powders (WP) or as emulsion concentrates (EC), are then sprayed onto the green parts of the plants in the form of an aqueous suspension or emulsion at a water application rate equating to 600 to 800 l/ha, with addition of 0.2% wetting agent. After the test plants have been left to stand in the greenhouse under optimal growth conditions for about 3 weeks, the action of the preparations is assessed visually in comparison to untreated controls (herbicidal action in percent (%): 100% activity=the plants have died, 0% activity=like control plants). […] The tables below illustrate, in an illustrative manner, the post-emergence herbicidal action of the compounds of the invention, the herbicidal activity being stated in percent. In the experiments that follow, the herbicidal action of the compounds of the invention and that of the corresponding known racemic compounds closest from WO2012126932 and WO2018202535 were compared under the above-specified conditions by the pre-emergence and post-emergence method. The example numbers given in the tables relate to the compounds disclosed in the respective documents.

[2] = tested on: ZEAMX; assay: Pre-emergence damage to crop plants; assay type: in vivo, Zea mays; conditions: 80 g a.i./ha, comparative experiment
Text: (§2) Seeds of monocotyledonous and dicotyledonous weed plants and crop plants are laid out in sandy loam soil in wood-fibre pots and covered with soil. The compounds of the invention, formulated in the form of wettable powders (WP) or as emulsion concentrates (EC), are then applied to the surface of the covering soil in the form of an aqueous suspension or emulsion at a water application rate equivalent to 600 to 800 l/ha, with addition of 0.2% wetting agent. After the treatment, the pots are placed in a greenhouse and kept under good growth conditions for the trial plants. The damage to the test plants is scored visually after a test period of 3 weeks by comparison with untreated controls (herbicidal activity in percent (%): 100% activity=the plants have died, 0% activity=like control plants). […] The tables below illustrate, in an illustrative manner, the post-emergence herbicidal action of the compounds of the invention, the herbicidal activity being stated in percent. In the experiments that follow, the herbicidal action of the compounds of the invention and that of the corresponding known racemic compounds closest from WO2012126932 and WO2018202535 were compared under the above-specified conditions by the pre-emergence and post-emergence method. The example numbers given in the tables relate to the compounds disclosed in the respective documents.

[3] = tested on: VIOTR; assay: Post-emergence herbicidal action; assay type: in vivo, Viola tricolor; conditions: for Herbicidal action against VIOTR: comparative experiment; for Post-emergence action against VIOTR: assessed after about 3 weeks
Experimental: as §1

[4] = tested on: GLXMA; assay: Post-emergence damage to crop plants; assay type: in vivo, Glycine max; conditions: 5 g a.i./ha, comparative experiment
Experimental: as §1, with “The example numbers given in the tables relate to the compounds disclosed in the respective documents.” left out

[5] = tested on: SETVI; assay: Post-emergence herbicidal action; assay type: in vivo, Setaria viridis; conditions: for Herbicidal action against SETVI: 5 g a.i./ha, comparative experiment; for Post-emergence action against SETVI: assessed after about 3 weeks
Experimental: as §1

[6] = tested on: TRZAS; assay: Post-emergence damage to crop plants; assay type: in vivo, Triticum aestiva; conditions: 5 g a.i./ha, comparative experiment
Experimental: as §1

[7] = tested on: BRSNW; assay: Pre-emergence damage to crop plants; assay type: in vivo, Brassica napus; conditions: 20 g a.i./ha, comparative experiment
Text: as §2

[8] = tested on: DIGSA; assay: Pre-emergence herbicidal action; assay type: in vivo, Digitaria sanguinalis; conditions: scored after 3 weeks
Text: as §2, with “percent.” for “percent. In the experiments that follow, the herbicidal action of the compounds of the invention and that of the corresponding known racemic compounds closest from WO2012126932 and WO2018202535 were compared under the above-specified conditions by the pre-emergence and post-emergence method. The example numbers given in the tables relate to the compounds disclosed in the respective documents.”

[9] = tested on: ALOMY; assay: Pre-emergence herbicidal action; assay type: in vivo, Alopecurus myosuroides; conditions: 80 g/ha, scored after 3 weeks
Text: as §2

[10] = tested on: VERPE; assay: Pre-emergence herbicidal action; assay type: in vivo, Veronica persica; conditions: scored after 3 weeks
Text: as §2

[11] = tested on: VIOTR; assay: Pre-emergence herbicidal action; assay type: in vivo, Viola tricolor; conditions: scored after 3 weeks
Text: as §2, with “percent.” for “percent. In the experiments that follow, the herbicidal action of the compounds of the invention and that of the corresponding known racemic compounds closest from WO2012126932 and WO2018202535 were compared under the above-specified conditions by the pre-emergence and post-emergence method. The example numbers given in the tables relate to the compounds disclosed in the respective documents.”

[12] = tested on: AMARE; assay: Post-emergence herbicidal action; assay type: in vivo, Amaranthus retroflexus; conditions: assessed after about 3 weeks
Experimental: as §1, with “percent.” for “percent. In the experiments that follow, the herbicidal action of the compounds of the invention and that of the corresponding known racemic compounds closest from WO2012126932 and WO2018202535 were compared under the above-specified conditions by the pre-emergence and post-emergence method. The example numbers given in the tables relate to the compounds disclosed in the respective documents.”

[13] = tested on: SETVI; assay: Pre-emergence herbicidal action; assay type: in vivo, Setaria viridis; conditions: scored after 3 weeks
Text: as §2

[14] = tested on: MATIN; assay: Pre-emergence herbicidal action; assay type: in vivo, Matricaria inodora; conditions: scored after 3 weeks
Text: as §2

[15] = tested on: AVEFA; assay: Pre-emergence herbicidal action; assay type: in vivo, Avena fatua; conditions: 80 g/ha, scored after 3 weeks
Text: as §2

[16] = tested on: VERPE; assay: Post-emergence herbicidal action; assay type: in vivo, Veronica persica; conditions: assessed after about 3 weeks
Experimental: as §1

[17] = tested on: DIGSA; assay: Post-emergence herbicidal action; assay type: in vivo, Digitaria sanguinalis; conditions: assessed after about 3 weeks
Experimental: as §1

[18] = tested on: PHBPU; assay: Post-emergence herbicidal action; assay type: in vivo, Pharbitis purpurea; conditions: 20 g/ha, assessed after about 3 weeks
Experimental: as §1, with “percent.” for “percent. In the experiments that follow, the herbicidal action of the compounds of the invention and that of the corresponding known racemic compounds closest from WO2012126932 and WO2018202535 were compared under the above-specified conditions by the pre-emergence and post-emergence method. The example numbers given in the tables relate to the compounds disclosed in the respective documents.”

[19] = tested on: AMARE; assay: Pre-emergence herbicidal action; assay type: in vivo, Amaranthus retroflexus; conditions: scored after 3 weeks
Text: as §2, with “percent.” for “percent. In the experiments that follow, the herbicidal action of the compounds of the invention and that of the corresponding known racemic compounds closest from WO2012126932 and WO2018202535 were compared under the above-specified conditions by the pre-emergence and post-emergence method. The example numbers given in the tables relate to the compounds disclosed in the respective documents.”

[20] = tested on: ECHCG; assay: Pre-emergence herbicidal action; assay type: in vivo, Echinochloa crus-galli; conditions: scored after 3 weeks
Text: as §2, with “percent.” for “percent. In the experiments that follow, the herbicidal action of the compounds of the invention and that of the corresponding known racemic compounds closest from WO2012126932 and WO2018202535 were compared under the above-specified conditions by the pre-emergence and post-emergence method. The example numbers given in the tables relate to the compounds disclosed in the respective documents.”

Question: Which “Herbicidal action against ECHCG” value [1] does the source give for `Cc1nnc(NC(=O)c2ccc(C(F)F)c([S+](C)[O-])c2Cl)o1` (racemic) [7-48 from WO2018202535, 2-chloro-N-(5-methyl-1,3,4-oxadiazol-2-yl)-3-[(rac)-methylsulfinyl]-4-(difluoromethyl)benzamide, reference compound] here?
Answer: 80%

Question: What about the “Damage to ZEAMX” value [2] of the same compound?
Answer: 50%

Question: And the “Herbicidal action against VIOTR” value ([3]; 5 g a.i./ha)?
Answer: 60%

Question: And the “Herbicidal action against VIOTR” value ([3]; 20 g a.i./ha)?
Answer: 80%

Question: And the “Damage to GLXMA” value [4]?
Answer: 60%

Question: And the “Herbicidal action against SETVI” value [5]?
Answer: 80%

Question: What about the “Damage to TRZAS” value [6] of the same compound?
Answer: 40%

Question: What about the “Damage to BRSNW” value [7] of the same compound?
Answer: 80%

Question: Which “Herbicidal action against ECHCG” value [1] does the source give for `Cc1nnc(NC(=O)c2ccc(C(F)F)c([S+](C)[O-])c2Cl)o1` (stereo in doubt) [Example I-6, 2-chloro-N-(5-methyl-1,3,4-oxadiazol-2-yl)-3-[(S)-methylsulfinyl]-4-(difluoromethyl)benzamide] here?
Answer: 100%

Question: What about the “Post-emergence action against ECHCG” value ([1]; 20 g/ha, assessed after about 3 weeks) of the same compound?
Answer: 100%

Question: And the “Damage to ZEAMX” value [2]?
Answer: 20%

Question: And the “Herbicidal action against VIOTR” value ([3]; 5 g a.i./ha)?
Answer: 80%

Question: What about the “Post-emergence action against VIOTR” value ([3]; 5 g/ha) of the same compound?
Answer: 80%

Question: And the “Herbicidal action against VIOTR” value ([3]; 20 g a.i./ha)?
Answer: 100%

Question: And the “Post-emergence action against VIOTR” value ([3]; 20 g/ha)?
Answer: 100%

Question: And the “Pre-emergence action against DIGSA” value ([8]; 20 g/ha)?
Answer: 100%

Question: What about the “Pre-emergence action against DIGSA” value ([8]; 80 g/ha) of the same compound?
Answer: 100%

Question: And the “Pre-emergence action against ALOMY” value [9]?
Answer: 100%

Question: And the “Pre-emergence action against VERPE” value ([10]; 20 g/ha)?
Answer: 90%

Question: And the “Pre-emergence action against VERPE” value ([10]; 80 g/ha)?
Answer: 100%

Question: And the “Pre-emergence action against VIOTR” value ([11]; 20 g/ha)?
Answer: 100%

Question: What about the “Pre-emergence action against VIOTR” value ([11]; 80 g/ha) of the same compound?
Answer: 100%

Question: And the “Post-emergence action against AMARE” value ([12]; 5 g/ha)?
Answer: 90%

Question: What about the “Post-emergence action against AMARE” value ([12]; 20 g/ha) of the same compound?
Answer: 100%

Question: And the “Damage to GLXMA” value [4]?
Answer: 40%

Question: What about the “Herbicidal action against SETVI” value [5] of the same compound?
Answer: 100%

Question: What about the “Post-emergence action against SETVI” value ([5]; 5 g/ha) of the same compound?
Answer: 100%

Question: What about the “Post-emergence action against SETVI” value ([5]; 20 g/ha) of the same compound?
Answer: 100%

Question: And the “Pre-emergence action against SETVI” value ([13]; 20 g/ha)?
Answer: 90%

Question: And the “Pre-emergence action against SETVI” value ([13]; 80 g/ha)?
Answer: 100%

Question: And the “Pre-emergence action against MATIN” value ([14]; 20 g/ha)?
Answer: 90%

Question: What about the “Pre-emergence action against MATIN” value ([14]; 80 g/ha) of the same compound?
Answer: 90%

Question: What about the “Damage to TRZAS” value [6] of the same compound?
Answer: 20%

Question: What about the “Pre-emergence action against AVEFA” value [15] of the same compound?
Answer: 100%

Question: What about the “Post-emergence action against VERPE” value ([16]; 5 g/ha) of the same compound?
Answer: 90%

Question: And the “Post-emergence action against VERPE” value ([16]; 20 g/ha)?
Answer: 90%

Question: And the “Post-emergence action against DIGSA” value ([17]; 5 g/ha)?
Answer: 90%

Question: And the “Post-emergence action against DIGSA” value ([17]; 20 g/ha)?
Answer: 90%

Question: And the “Post-emergence action against PHBPU” value [18]?
Answer: 90%

Question: What about the “Pre-emergence action against AMARE” value ([19]; 20 g/ha) of the same compound?
Answer: 90%

Question: What about the “Pre-emergence action against AMARE” value ([19]; 80 g/ha) of the same compound?
Answer: 100%

Question: And the “Damage to BRSNW” value [7]?
Answer: 40%

Question: What about the “Pre-emergence action against ECHCG” value ([20]; 20 g/ha) of the same compound?
Answer: 90%

Question: And the “Pre-emergence action against ECHCG” value ([20]; 80 g/ha)?
Answer: 100%
